Consider one compound from publication PMC5218480 (PLoS ONE, 2017).

For this assay, the system named is MV-4-11 cells. In words: Gene expression microarray analysis (Affymetrix PrimeView) and GSEA. The class given is cell-based, human. Set-up: RFU PODN (11730768_x_at) / Fold change /veh PODN (11730768_x_at) / RFU LINC00158 (11744669_a_at) / Fold change /veh LINC00158 (11744669_a_at) / RFU DUSP10 (11751237_a_at) / Fold change /veh DUSP10 (11751237_a_at) / RFU ID3 (11757404_x_at) / Fold change /veh ID3 (11757404_x_at) / RFU PLEKHG5 (11737974_s_at) / Fold change /veh PLEKHG5 (11737974_s_at) / RFU LRRC4B (11730491_at) / Fold change /veh LRRC4B (11730491_at) / RFU GIMAP4 (11747438_a_at) / Fold change /veh GIMAP4 (11747438_a_at) / RFU KRT8 (11758183_x_at) / Fold change /veh KRT8 (11758183_x_at) / RFU CNN1 (11734310_a_at) / Fold change /veh CNN1 (11734310_a_at) / RFU VPS37D (11726825_at) / Fold change /veh VPS37D (11726825_at) / RFU C10orf10 (11716522_x_at) / Fold change /veh C10orf10 (11716522_x_at) / RFU KIR2DL2 /// KIR2DL4 /// KIR2DL5A /// KIR2DL5B /// KIR2DS1 /// KIR2DS2 /// KIR2DS3 /// KIR2DS4 /// KIR3DL3 /// KIR3DL3 /// KIR3DS1 (11738374_at) / Fold change /veh KIR2DL2 /// KIR2DL4 /// KIR2DL5A /// KIR2DL5B /// KIR2DS1 /// KIR2DS2 /// KIR2DS3 /// KIR2DS4 /// KIR3DL3 /// KIR3DL3 /// KIR3DS1 (11738374_at) / RFU C1QL1 (11718748_at) / Fold change /veh C1QL1 (11718748_at) / RFU TMPRSS4 (11747572_a_at) / Fold change /veh TMPRSS4 (11747572_a_at) / RFU HAMP (11756126_x_at) / Fold change /veh HAMP (11756126_x_at) / RFU RNFT2 (11725882_a_at) / Fold change /veh RNFT2 (11725882_a_at) / RFU NR4A2 (11747474_a_at) / Fold change /veh NR4A2 (11747474_a_at) / RFU ABCC12 (11746883_a_at) / Fold change /veh ABCC12 (11746883_a_at) / RFU TMEM136 (11760407_x_at) / Fold change /veh TMEM136 (11760407_x_at) / RFU CLDN22 /// WWC2 (11732394_at) / Fold change /veh CLDN22 /// WWC2 (11732394_at) / RFU HLA-DPB1 (11760878_x_at) / Fold change /veh HLA-DPB1 (11760878_x_at) / RFU SPINT1 (11716480_a_at) / Fold change /veh SPINT1 (11716480_a_at) / RFU GAP43 (11754022_s_at) / Fold change /veh GAP43 (11754022_s_at) / RFU A4GNT (11735810_at) / Fold change /veh A4GNT (11735810_at) / RFU PRB3 (11715151_x_at) / Fold change /veh PRB3 (11715151_x_at) / RFU TUBB4B (11761932_at) / Fold change /veh TUBB4B (11761932_at) / RFU CAPN14 (11732068_a_at) / Fold change /veh CAPN14 (11732068_a_at) / RFU TMCC2 (11721928_a_at) / Fold change /veh TMCC2 (11721928_a_at) / RFU IRGQ (11745062_a_at) / Fold change /veh IRGQ (11745062_a_at) / RFU FAM174B (11720279_a_at) / Fold change /veh FAM174B (11720279_a_at) / RFU TMPRSS4 (11748680_a_at) / Fold change /veh TMPRSS4 (11748680_a_at) / RFU FAM212B (11763350_a_at) / Fold change /veh FAM212B (11763350_a_at) / RFU PLEKHG5 (11743358_a_at) / Fold change /veh PLEKHG5 (11743358_a_at) / RFU ZSCAN30 (11745921_a_at) / Fold change /veh ZSCAN30 (11745921_a_at) / RFU CMKLR1 (11741424_a_at) / Fold change /veh CMKLR1 (11741424_a_at) / RFU LOC101060620 /// MAPK8IP1 (11723275_at) / Fold change /veh LOC101060620 /// MAPK8IP1 (11723275_at) / RFU SPTSSB (11747773_x_at) / Fold change /veh SPTSSB (11747773_x_at) / RFU PRSS12 (11739890_at) / Fold change /veh PRSS12 (11739890_at) / RFU BIN1 (11741810_x_at) / Fold change /veh BIN1 (11741810_x_at) / RFU WNT11 (11732464_a_at) / Fold change /veh WNT11 (11732464_a_at) / RFU C10orf10 (11716521_a_at) / Fold change /veh C10orf10 (11716521_a_at) / RFU C5orf56 (11738089_at) / Fold change /veh C5orf56 (11738089_at) / RFU CYB561 (11721691_x_at) / Fold change /veh CYB561 (11721691_x_at) / RFU ANKRD19P (11752326_a_at) / Fold change /veh ANKRD19P (11752326_a_at) / RFU OR2T12 /// OR2T33 /// OR2T8 (11738714_s_at) / Fold change /veh OR2T12 /// OR2T33 /// OR2T8 (11738714_s_at) / RFU VCAN (11748164_a_at) / Fold change /veh VCAN (11748164_a_at) / RFU JSRP1 (11732532_at) / Fold change /veh JSRP1 (11732532_at) / RFU KRTAP10-11 (11738290_x_at) / Fold change /veh KRTAP10-11 (11738290_x_at) / RFU MYO3A (11730013_a_at) / Fold change /veh MYO3A (11730013_a_at) / RFU EBF3 (11725865_a_at) / Fold change /veh EBF3 (11725865_a_at) / RFU CAMK2N1 (11719241_x_at) / Fold change /veh CAMK2N1 (11719241_x_at) / RFU C5orf56 (11738088_a_at) / Fold change /veh C5orf56 (11738088_a_at) / RFU OLFML3 (11715873_a_at) / Fold change /veh OLFML3 (11715873_a_at) / RFU LOC100653217 /// NTM (11731650_a_at) / Fold change /veh LOC100653217 /// NTM (11731650_a_at) / RFU MAPK11 (11762145_a_at) / Fold change /veh MAPK11 (11762145_a_at) / RFU FIZ1 (11724087_x_at) / Fold change /veh FIZ1 (11724087_x_at) / RFU OASL (11726364_x_at) / Fold change /veh OASL (11726364_x_at) / RFU SOX15 (11748057_x_at) / Fold change /veh SOX15 (11748057_x_at) / RFU CD79A (11719716_a_at) / Fold change /veh CD79A (11719716_a_at) / RFU HIST1H1D (11736915_at) / Fold change /veh HIST1H1D (11736915_at) / RFU CASKIN2 (11723855_a_at) / Fold change /veh CASKIN2 (11723855_a_at) / RFU LOC730098 (11760151_x_at) / Fold change /veh LOC730098 (11760151_x_at) / RFU OR4N2 (11742367_at) / Fold change /veh OR4N2 (11742367_at) / RFU PRRT2 (11749266_a_at) / Fold change /veh PRRT2 (11749266_a_at) / RFU SNX32 (11753110_a_at) / Fold change /veh SNX32 (11753110_a_at) / RFU CDHR5 (11726645_a_at) / Fold change /veh CDHR5 (11726645_a_at) / RFU RCAN1 (11760418_a_at) / Fold change /veh RCAN1 (11760418_a_at) / RFU FAM167A (11723789_a_at) / Fold change /veh FAM167A (11723789_a_at) / RFU FAM26E (11764081_at) / Fold change /veh FAM26E (11764081_at) / RFU ISYNA1 (11749810_s_at) / Fold change /veh ISYNA1 (11749810_s_at) / RFU ACY1 (11761880_at) / Fold change /veh ACY1 (11761880_at) / RFU 11764098_at / Fold change /veh 11764098_at / RFU SAMD14 (11745864_x_at) / Fold change /veh SAMD14 (11745864_x_at) / RFU NPB (11741838_a_at) / Fold change /veh NPB (11741838_a_at) / RFU TMPRSS6 (11731388_a_at) / Fold change /veh TMPRSS6 (11731388_a_at) / RFU KRTAP10-2 (11738614_at) / Fold change /veh KRTAP10-2 (11738614_at) / RFU ARHGAP8 /// PRR5-ARHGAP8 (11727945_x_at) / Fold change /veh ARHGAP8 /// PRR5-ARHGAP8 (11727945_x_at) / RFU KRTAP5-7 /// NADSYN1 (11734609_at) / Fold change /veh KRTAP5-7 /// NADSYN1 (11734609_at) / RFU RASL12 (11751679_a_at) / Fold change /veh RASL12 (11751679_a_at) / RFU CDKN2B (11736163_a_at) / Fold change /veh CDKN2B (11736163_a_at) / RFU PRF1 (11729649_at) / Fold change /veh PRF1 (11729649_at) / RFU, ZNF638 /// ZNF638-IT1 / Fold change vs veh, ZNF638 /// ZNF638-IT1 / RFU, PANK3 / Fold change vs veh, PANK3 / RFU, SH3YL1 / Fold change vs veh, SH3YL1 / RFU, ZEB2 / Fold change vs veh, ZEB2 / RFU, NRIP1 / Fold change vs veh, NRIP1 / RFU, PTTG1IP / Fold change vs veh, PTTG1IP / RFU, CAPN2 / Fold change vs veh, CAPN2 / RFU, MED14 / Fold change vs veh, MED14 / RFU, SNORA58 / Fold change vs veh, SNORA58 / RFU, C1orf63 / Fold change vs veh, C1orf63 / RFU, LRRFIP1 / Fold change vs veh, LRRFIP1 / RFU, NDUFAF7 / Fold change vs veh, NDUFAF7 / RFU, SLC12A2 / Fold change vs veh, SLC12A2 / RFU, IBTK / Fold change vs veh, IBTK / RFU, ESF1 / Fold change vs veh, ESF1 / Fold change vs veh, TMEM50B / RFU, TAOK1 / Fold change vs veh, TAOK1 / RFU, ACBD3 / Fold change vs veh, ACBD3 / RFU, TMA16 / Fold change vs veh, TMA16 / RFU, RWDD3 / Fold change vs veh, RWDD3 / RFU, BCAT1 / Fold change vs veh, BCAT1 / RFU, EDEM3 / Fold change vs veh, EDEM3 / RFU, TMEM33 / Fold change vs veh, TMEM33 / RFU, WDR75 / Fold change vs veh, WDR75 / RFU, AHCTF1 / Fold change vs veh, AHCTF1 / RFU, TFRC / Fold change vs veh, TFRC / RFU, ZDHHC17 / Fold change vs veh, ZDHHC17 / RFU, NOM1 / Fold change vs veh, NOM1 / RFU, ARL8B / Fold change vs veh, ARL8B / RFU, ZBTB11 / Fold change vs veh, ZBTB11 / RFU, TAMM41 / Fold change vs veh, TAMM41 / RFU, KIAA1704 /// LOC100996395 / Fold change vs veh, KIAA1704 /// LOC100996395 / RFU, ING1 / Fold change vs veh, ING1 / RFU, TRMT61B / Fold change vs veh, TRMT61B / RFU, FUBP3 / Fold change vs veh, FUBP3 / RFU, TP53 / Fold change vs veh, TP53 / RFU, TNKS2 / Fold change vs veh, TNKS2 / RFU, ZFP14 / Fold change vs veh, ZFP14 / RFU, ACTR2 / Fold change vs veh, ACTR2 / RFU, PPP3R1 / Fold change vs veh, PPP3R1 / RFU, PIK3R1 / Fold change vs veh, PIK3R1 / RFU, HNRNPA1 / Fold change vs veh, HNRNPA1 / RFU, RNF170 / Fold change vs veh, RNF170 / RFU, ZNF28 / Fold change vs veh, ZNF28 / RFU, RNGTT / Fold change vs veh, RNGTT / RFU, OGT / Fold change vs veh, OGT / RFU, BRD1 / Fold change vs veh, BRD1 / RFU, MARS / Fold change vs veh, MARS / RFU, ZNF655 / Fold change vs veh, ZNF655 / RFU, FAHD1 / Fold change vs veh, FAHD1 / RFU, BDP1 / Fold change vs veh, BDP1 / RFU, LRRCC1 / Fold change vs veh, LRRCC1 / RFU, ARID1A / Fold change vs veh, ARID1A / RFU, ZNF146 / Fold change vs veh, ZNF146 / RFU, ZNF330 / Fold change vs veh, ZNF330 / RFU, GPN3 / Fold change vs veh, GPN3 / RFU, C9orf123 / Fold change vs veh, C9orf123 / RFU, N4BP2L2 / Fold change vs veh, N4BP2L2 / RFU, ARFIP1 / Fold change vs veh, ARFIP1 / RFU, FAM179B / Fold change vs veh, FAM179B / RFU, BCL10 / Fold change vs veh, BCL10 / RFU, UHRF1BP1L / Fold change vs veh, UHRF1BP1L / RFU, BET1 / Fold change vs veh, BET1 / RFU, CNOT2 / Fold change vs veh, CNOT2 / RFU, ZNF268 / Fold change vs veh, ZNF268 / Fold change vs veh, ZNF507 / RFU, DGCR2 / Fold change vs veh, DGCR2 / RFU, WDSUB1 / Fold change vs veh, WDSUB1 / Fold change vs veh, HSP90B1 /// MIR3652 / RFU, ADSS / Fold change vs veh, ADSS / RFU, GK / Fold change vs veh, GK / RFU, ZNF148 / Fold change vs veh, ZNF148 / RFU, TAF9 / Fold change vs veh, TAF9 / RFU, SLC1A5 / Fold change vs veh, SLC1A5 / RFU, SLMO2 / Fold change vs veh, SLMO2 / RFU, ABCC4 / Fold change vs veh, ABCC4 / RFU, LOC101060439 /// RAP1B / Fold change vs veh, LOC101060439 /// RAP1B / RFU, RFX7 / Fold change vs veh, RFX7 / RFU, GTPBP10 / Fold change vs veh, GTPBP10 / RFU, CNEP1R1 / Fold change vs veh, CNEP1R1 / RFU, BIVM-ERCC5 /// ERCC5 / Fold change vs veh, BIVM-ERCC5 /// ERCC5 / RFU, ILF3 / Fold change vs veh, ILF3 / RFU 11762660_at / Fold change /veh 11762660_at / RFU VCAN (11757783_s_at) / Fold change /veh VCAN (11757783_s_at) / RFU DDX43 (11728927_at) / Fold change /veh DDX43 (11728927_at) / RFU KRT8 (11758188_x_at) / Fold change /veh KRT8 (11758188_x_at) / RFU NKD1 (11759106_at) / Fold change /veh NKD1 (11759106_at) / RFU SRD5A1 (11742802_a_at) / Fold change /veh SRD5A1 (11742802_a_at) / RFU TPSAB1 /// TPSB2 (11721975_s_at) / Fold change /veh TPSAB1 /// TPSB2 (11721975_s_at) / RFU GSTM3 (11746129_a_at) / Fold change /veh GSTM3 (11746129_a_at) / RFU IL23R (11737362_x_at) / Fold change /veh IL23R (11737362_x_at) / RFU TMEM51 (11727254_a_at) / Fold change /veh TMEM51 (11727254_a_at) / RFU PIWIL2 (11732686_x_at) / Fold change /veh PIWIL2 (11732686_x_at) / RFU ORM1 (11744905_x_at) / Fold change /veh ORM1 (11744905_x_at) / RFU CCDC152 (11743942_at) / Fold change /veh CCDC152 (11743942_at) / RFU ECM1 (11717891_a_at) / Fold change /veh ECM1 (11717891_a_at) / RFU IL23R (11748794_a_at) / Fold change /veh IL23R (11748794_a_at) / RFU TNFAIP8L3 (11732012_x_at) / Fold change /veh TNFAIP8L3 (11732012_x_at) / RFU MBOAT4 (11741988_at) / Fold change /veh MBOAT4 (11741988_at) / RFU 11764193_at / Fold change /veh 11764193_at / RFU TMEM53 (11763286_at) / Fold change /veh TMEM53 (11763286_at) / RFU MAGEB2 (11727129_at) / Fold change /veh MAGEB2 (11727129_at) / RFU TMEM200A (11744735_a_at) / Fold change /veh TMEM200A (11744735_a_at) / RFU CCDC152 (11751479_a_at) / Fold change /veh CCDC152 (11751479_a_at) / RFU FAM211A (11726209_a_at) / Fold change /veh FAM211A (11726209_a_at) / RFU RGS16 (11746705_a_at) / Fold change /veh RGS16 (11746705_a_at) / RFU VCAN (11755009_s_at) / Fold change /veh VCAN (11755009_s_at) / RFU RHOB (11743442_s_at) / Fold change /veh RHOB (11743442_s_at) / RFU RGS16 (11720943_a_at) / Fold change /veh RGS16 (11720943_a_at) / RFU RGS16 (11720944_at) / Fold change /veh RGS16 (11720944_at) / RFU, VPS4B / Fold change vs veh, VPS4B / RFU, CREB1 / Fold change vs veh, CREB1 / RFU, DNAJC13 / Fold change vs veh, DNAJC13 / RFU, GNAQ / Fold change vs veh, GNAQ / RFU, CDK5R1 / Fold change vs veh, CDK5R1 / RFU, ZRANB3 / Fold change vs veh, ZRANB3 / RFU, CUL4A / Fold change vs veh, CUL4A / RFU, CCNY / Fold change vs veh, CCNY / RFU, UFL1 / Fold change vs veh, UFL1 / RFU, COG3 / Fold change vs veh, COG3 / RFU, DIAPH2 / Fold change vs veh, DIAPH2 / RFU, SKA2 / Fold change vs veh, SKA2 / RFU, AFF3 / Fold change vs veh, AFF3 / RFU, LMF1 / Fold change vs veh, LMF1 / RFU, IPO11 / Fold change vs veh, IPO11 / RFU, DFFB / Fold change vs veh, DFFB / RFU, FOXP1 / Fold change vs veh, FOXP1 / RFU, CARD8 / Fold change vs veh, CARD8 / RFU, STRN3 / Fold change vs veh, STRN3 / RFU, ADK / Fold change vs veh, ADK / RFU, RASSF2 / Fold change vs veh, RASSF2 / RFU, WIPF1 / Fold change vs veh, WIPF1 / RFU, LARP1B / Fold change vs veh, LARP1B / RFU, RASA1 / Fold change vs veh, RASA1 / RFU, RB1 / Fold change vs veh, RB1 / RFU, PPFIA1 / Fold change vs veh, PPFIA1 / RFU, MAT2A / Fold change vs veh, MAT2A / RFU, CCT5 / Fold change vs veh, CCT5 / RFU, WDR92 / Fold change vs veh, WDR92 / RFU, CUX1 / Fold change vs veh, CUX1 / RFU, TTC7A / Fold change vs veh, TTC7A / RFU, TMEM135 / Fold change vs veh, TMEM135 / RFU, DEPTOR / Fold change vs veh, DEPTOR / RFU, CPM / Fold change vs veh, CPM / RFU, DNAJB6 / Fold change vs veh, DNAJB6 / RFU, CACNA2D3 / Fold change vs veh, CACNA2D3 / RFU, DTX4 / Fold change vs veh, DTX4 / RFU, TFCP2 / Fold change vs veh, TFCP2 / RFU, GMCL1 /// GMCL1P1 / Fold change vs veh, GMCL1 /// GMCL1P1 / RFU, AEBP2 / Fold change vs veh, AEBP2 / RFU, SNHG1 /// SNORD22 /// SNORD25 /// SNORD26 /// SNORD27 /// SNORD28 /// SNORD29 /// SNORD31 / Fold change vs veh, SNHG1 /// SNORD22 /// SNORD25 /// SNORD26 /// SNORD27 /// SNORD28 /// SNORD29 /// SNORD31 / Fold change (Aza/veh), C12orf56 (ProbeSet 11735607_a_at) / Fold change (ACY-1035/veh), C12orf56 (ProbeSet 11735607_a_at) / Fold change (Aza/veh), FGFR1OP (ProbeSet 11751329_s_at) / Fold change (ACY-1035/veh), FGFR1OP (ProbeSet 11751329_s_at) / Fold change (Aza/veh), VPS36 (ProbeSet 11739960_a_at) / Fold change (ACY-1035/veh), VPS36 (ProbeSet 11739960_a_at) / RFU SYPL1 (11715823_x_at) / Fold change /veh SYPL1 (11715823_x_at) / RFU IGFBP7 (11715501_s_at) / Fold change /veh IGFBP7 (11715501_s_at) / RFU REEP3 (11722064_at) / Fold change /veh REEP3 (11722064_at) / RFU IGLL1 (11728026_x_at) / Fold change /veh IGLL1 (11728026_x_at): dose or concentration left out as unconfirmed. To be noted: ProbeSet 11723930_at; LIST D.

Take `Nc1ncn([C@@H]2O[C@H](CO)[C@@H](O)[C@H]2O)c(=O)n1` [azacitidine]: the “Fold change vs veh, CCT5” value was determined as 0.69.
